According to US11427544B2, “Histone deacetylase 6 inhibitors and use thereof” (TAIPEI MEDICAL UNIVERSITY, priority 2016, dated 2022):
pIC50: −log10 of the molar value.

What was measured:
[1] = molecular target: T1, HDAC6 (Homo sapiens, UniProt Q9UBN7); assay: Fluorogenic HDAC assay, HDAC6; assay type: biochemical
T1 construct: purchased BPS Bioscience Corp
T1 sequence (Q9UBN7 1-1215): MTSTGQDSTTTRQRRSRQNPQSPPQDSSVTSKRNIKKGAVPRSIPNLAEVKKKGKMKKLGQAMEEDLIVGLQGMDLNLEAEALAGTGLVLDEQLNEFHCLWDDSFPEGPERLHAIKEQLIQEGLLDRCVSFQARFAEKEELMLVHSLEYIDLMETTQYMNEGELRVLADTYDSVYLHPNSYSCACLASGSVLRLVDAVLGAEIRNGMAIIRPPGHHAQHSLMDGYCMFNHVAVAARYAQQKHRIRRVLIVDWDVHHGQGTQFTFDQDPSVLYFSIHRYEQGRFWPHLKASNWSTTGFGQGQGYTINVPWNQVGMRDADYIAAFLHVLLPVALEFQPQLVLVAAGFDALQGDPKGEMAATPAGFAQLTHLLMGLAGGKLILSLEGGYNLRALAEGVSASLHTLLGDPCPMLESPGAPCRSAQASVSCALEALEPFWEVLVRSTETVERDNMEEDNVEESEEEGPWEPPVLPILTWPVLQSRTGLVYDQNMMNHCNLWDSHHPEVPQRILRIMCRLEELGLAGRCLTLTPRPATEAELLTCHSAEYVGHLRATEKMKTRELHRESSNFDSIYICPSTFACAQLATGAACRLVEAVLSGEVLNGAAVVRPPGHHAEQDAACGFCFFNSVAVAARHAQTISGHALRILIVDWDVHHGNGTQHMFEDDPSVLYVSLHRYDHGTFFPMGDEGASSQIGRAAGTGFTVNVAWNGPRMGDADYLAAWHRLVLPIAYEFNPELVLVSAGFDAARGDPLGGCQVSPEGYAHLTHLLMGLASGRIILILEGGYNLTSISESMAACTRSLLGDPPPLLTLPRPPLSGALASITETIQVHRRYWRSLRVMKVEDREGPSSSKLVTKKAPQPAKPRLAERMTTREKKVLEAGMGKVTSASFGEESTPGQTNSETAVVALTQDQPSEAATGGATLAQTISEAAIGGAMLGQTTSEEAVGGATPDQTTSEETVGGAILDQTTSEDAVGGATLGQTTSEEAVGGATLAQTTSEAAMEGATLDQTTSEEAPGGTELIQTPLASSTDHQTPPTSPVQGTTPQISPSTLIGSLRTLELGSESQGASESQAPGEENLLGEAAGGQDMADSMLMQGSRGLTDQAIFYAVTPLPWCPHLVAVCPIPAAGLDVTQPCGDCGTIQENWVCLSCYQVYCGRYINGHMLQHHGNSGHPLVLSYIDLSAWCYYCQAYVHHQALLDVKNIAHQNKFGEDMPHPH
From the text: Of note, there are eighteen human HDACs. Eleven of them, designated as HDAC1-11, are zinc-dependent. Seven of them, designated as Sirt1-7, are NAD+-dependent.
Fluorogenic HDAC assay kits were used to assess the ability of HDAC inhibitors to inhibit deacetylation of lysine residues on a substrate by recombinant proteins HDAC1, 3, 4, 5, 6, 7, 8, 9 and Sirt1 according to the manufacturer's instructions (BPS Bioscience Corp., San Diego, Calif., USA).

[2] = test system: acetyl-a-tubuline expression in RPMI8226, U266, and NCI-H929; assay: Acetyl-a-tubuline expression in multiple myeloma cell lines (immunoblotting); assay type: cell-based, human
Procedure: A study was conducted to evaluate the activity of a compound of Formula (I) in increasing acetyl-a-tubuline expression in human multiple myeloma cell lines (RPMI8226, U266, and NCI-H929).
(§1) Cells (1×10^6) were incubated for 10 minutes at 4° C. in a lysis buffer solution in a culture vessel, and then scraped off the culture vessel, incubated on ice for another 10 minutes, and centrifuged at 17,000×g for 30 minutes at 4° C. Protein samples (80 μg) were electrophoresed on SDS gels and transferred onto a nitrocellulose membrane, which was blocked by incubation with 5% fat-free milk in phosphate-buffered saline (PBS) for 30 minutes at room temperature. Immunoblotting was performed by overnight incubation at 4° C. with primary antibodies in PBS, followed by incubation for 1 hour at room temperature with horseradish peroxidase (HRP)-conjugated secondary antibodies, then bound antibodies were measured using enhanced chemiluminescence (ECL) reagent (Advansta Corp., Menlo Park, Calif., USA) and exposure to photographic film.
(§2) The study was performed according to the protocol reported in Yang et al., Journal of Molecular Medicine, 2014, November; 92(11):1147-1158.

[3] = test system: Caspase-3, Caspase-8, and Caspase-9 cleavage in RPMI8226 and NCI-H929; assay: Cleavage of Caspase-3, -8 and -9 in multiple myeloma cells, combined with bortezomib; assay type: cell-based, human
Procedure: A study was conducted to evaluate the effect of a compound of Formula (I) combined with bortezomib in increasing cleavage of Caspase-3, Caspase-8, and Caspase-9 in multiple myeloma cells.
as §1, with “[…])” for “μg)”
as §2

[4] = test system: APP in pCAX APP 695 plasmid-transfected Neuro 2a cells; assay: Amyloid precursor protein (APP) levels, Western blot; assay type: cell-based; conditions: pCAX APP 695 transfected neuro 2a cells; 0.1-10 μM, 24 hours
Procedure: A study was conducted to evaluate the effect of compounds of Formula (I) in amyloid precursor protein (APP) levels and Aβ42 production.
Neuro 2a cells (1×10^6) in 6-well plates were transfected with pCAX APP 695 plasmid for 24 hours, then incubated for another 24 hours with Compound 12, Compound 28, or tubasatin A (0.1-10 μM). Cells were then harvested and cell lysates were prepared for Western blot analysis of the APP proteins.

[5] = Safety in ICR mice, 7-day intraperitoneal dosing; assay type: in vivo; conditions: 50, 100, and 200 mg/kg intraperitoneally once a day for 7 days, monitored another 7 days
Procedure: In addition, both Compounds 12 and 28 were studied to evaluate their safety in animals.
[…]. The animals were dosed intraperitoneally once a day for 7 days and then monitored for another 7 days. The animals were weighed daily for 1 week and then twice weekly.

In the case of `O=C(NO)c1ccc(CNc2cccc3cccnc23)cc1` [Compound 28, N-hydroxy-4-((quinolin-8-ylamino)methyl)benzamide], the pIC50 [1] was 8.36, the acetyl-a-tubuline expression [2] was “increasing acetyl-a-tubuline expression in a dose-dependent manner” and the “cleavage of Caspase-3, Caspase-8, and Caspase-9” value [3] was “increased cleavage of Caspase-3, Caspase-8, and Caspase-9”. The APP expression [4] was “markedly reduced the APP expression” and the tolerability [5] was “well tolerated”.
